Inconclusive results are not listed. Activity calls are given as the source filed them. How the calls were made is not given here.
Test system: NIH/3T3 mouse fibroblast toxicity, plate reader
Test: mouse embryonic fibroblast toxicity – cell-based, plate reader, dry powder, set 2, cytotoxicity control, dose response (AID 652280)
Conditions: not given

Structure (SMILES) | AC50 [µM]
C[C@@H]1CN([C@@H](C)CO)C(=O)c2cccc(NC(=O)c3ccncc3)c2O[C@H]1CN(C)Cc1ccc(Oc2ccccc2)cc1 | 3.31

Test system: not listed separately
Test: as above
Conditions: NIH/3T3 mouse fibroblast toxicity, plate reader; at 16 µM (top of the series)

Structure (SMILES) | activity change, negative = toxicity
CC(C)(C)S(=O)N1Cc2cc(C(=O)NCc3ccc4c(c3)OCO4)nc(-c3cccc(-c4cccc(F)c4)c3)c2[C@@H]1CCO (stereo partly specified) | -21.2% (inactive)
CC(C)N1CC2(CN(C(=O)OC(C)(C)C)C2)Oc2c(NC(=O)c3ccncc3)cccc2C1=O | -9.89% (inactive)
CC(C)N1CC2(CN(Cc3ccc(F)c(F)c3)C2)Oc2c(NC(=O)c3ccncc3)cccc2C1=O | -3.93% (inactive)
CN(C)C(=O)c1ccc(-c2ccc([C@H]3[C@H](CO)N4CCCCN(Cc5cncnc5)C[C@@H]34)cc2)cc1 | 10.1% (inactive)
CC(c1ccc(Cl)cc1)N1CC2(C1)CN(C(C)C)C(=O)c1cccc(NC(=O)c3ccncc3)c1O2 (stereo unspecified) | 6.05% (inactive)
CC(C)(C)S(=O)N1Cc2cc(C(=O)NCc3ccc4c(c3)OCO4)nc(-c3cccc(-c4cccc(F)c4)c3)c2[C@H]1CCO (stereo partly specified) | 12.7% (inactive)
CN(C)CC#Cc1cccc(-c2nc(C(=O)NCc3ccc(Oc4ccccc4)cc3)cc3c2[C@@H](CCO)N(S(=O)C(C)(C)C)C3)c1 (stereo partly specified) | 31.3% (inactive)
CC(C)N1CC2(CN(Cc3ccc(-c4cccnc4)cc3)C2)Oc2c(NC(=O)c3ccncc3)cccc2C1=O | -22.8% (inactive)
CC(=O)N1CCCCN2[C@@H](CO)[C@H](c3ccc(-c4cccc(C(=O)N(C)C)c4)cc3)[C@@H]2C1 | 24.4% (inactive)
COCCNC(=O)c1cc2c(c(-c3cccc(C#CCN(C)C)c3)n1)[C@@H](CCO)N(S(=O)C(C)(C)C)C2 (stereo partly specified) | 5.61% (inactive)
